The results in this text go back to PubChem BioAssay AID248 (DTP/NCI, 2004).

Where “and” joins values, the source holds several entries; their conditions need not be identical. Identical values can stand only once. Toxic doses and inconclusive results are not listed.

For the assay, the system named is L1210 leukemia ip in BDF1 mice, survival T/C. Put plainly: NCI In Vivo Anticancer Drug Screen. Data for tumor model L1210 Leukemia (intraperitoneal) in B6D2F1 (BDF1) mice. To be noted: endpoint: mean survival time, higher = longer survival. The essentials: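 Ratio derived from survival: compound-dosed mice over vehicle-dosed mice, all bearing a transplantable tumor.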

Setting [1] is: dose: 100.0 mg/kg/injection, schedule: Q04DX002 (ip), vehicle: Klucel (hydroxypropylcellulose) (HPC).
Setting [2] is: dose: 200.0 mg/kg/injection, schedule: Q04DX002 (ip), vehicle: Klucel (hydroxypropylcellulose) (HPC).
[3] abbreviates: dose: 100.0 mg/kg/injection, schedule: Q01DX009 (ip), vehicle: Klucel (hydroxypropylcellulose) (HPC).
Setting [4] is: dose: 100.0 mg/kg/injection, schedule: Q04DX003 (ip), vehicle: Klucel (hydroxypropylcellulose) (HPC).
The mark [5] stands for this setting: dose: 200.0 mg/kg/injection, schedule: Q01DX009 (ip), vehicle: Klucel (hydroxypropylcellulose) (HPC).
[6] abbreviates: dose: 200.0 mg/kg/injection, schedule: Q04DX003 (ip), vehicle: Klucel (hydroxypropylcellulose) (HPC).
[7] abbreviates: dose: 400.0 mg/kg/injection, schedule: Q01DX009 (ip), vehicle: Klucel (hydroxypropylcellulose) (HPC).
Where [8] appears, read: dose: 400.0 mg/kg/injection, schedule: Q04DX003 (ip), vehicle: Klucel (hydroxypropylcellulose) (HPC).
The mark [9] stands for this setting: dose: 25.0 mg/kg/injection, schedule: Q01DX009 (ip), vehicle: saline with Tween-80.
The mark [10] stands for this setting: dose: 50.0 mg/kg/injection, schedule: Q01DX009 (ip), vehicle: saline with Tween-80.
Where [11] appears, read: dose: 100.0 mg/kg/injection, schedule: Q01DX009 (ip), vehicle: saline with Tween-80.
The mark [12] stands for this setting: dose: 100.0 mg/kg/injection, schedule: Q01DX001 (ip), vehicle: saline.
Setting [13] is: dose: 200.0 mg/kg/injection, schedule: Q01DX001 (ip), vehicle: saline.
[14] abbreviates: dose: 400.0 mg/kg/injection, schedule: Q01DX001 (ip), vehicle: saline.

Regarding `CC(=O)OCC(=O)[C@@]1(O)CC[C@H]2[C@@H]3CCC4=CC(=O)[C@H](C)C[C@]4(C)[C@H]3[C@@H](O)C[C@@]21C`, the T/C was 111 % of control (dose: 50.0 mg/kg/injection, schedule: Q01DX001 (sc), vehicle: steriod suspending solution); 102 % of control (dose: 100.0 mg/kg/injection, schedule: Q01DX001 (sc), vehicle: steriod suspending solution); 100 % of control (dose: 100.0 mg/kg/injection, schedule: Q04DX003 (sc), vehicle: steriod suspending solution); 102 % of control (dose: 200.0 mg/kg/injection, schedule: Q01DX001 (sc), vehicle: steriod suspending solution); 105 % of control (dose: 200.0 mg/kg/injection, schedule: Q04DX003 (sc), vehicle: steriod suspending solution); 110 % of control (dose: 400.0 mg/kg/injection, schedule: Q01DX001 (sc), vehicle: steriod suspending solution). For the same molecule, the T/C (dose: 400.0 mg/kg/injection, schedule: Q04DX003 (sc), vehicle: steriod suspending solution) was 107 % of control.

As to `O=C(Cc1ccc(Cl)cc1)N/N=C/c1ccc([N+](=O)[O-])s1`, the T/C (dose: 100.0 mg/kg/injection, schedule: Q04DX003 (ip), vehicle: saline) was 93 % of control; the T/C (dose: 200.0 mg/kg/injection, schedule: Q04DX003 (ip), vehicle: saline) was 93 % of control; the T/C (dose: 400.0 mg/kg/injection, schedule: Q04DX003 (ip), vehicle: saline) is 90 % of control.

On to `COc1cc(N(CCCl)CCCl)ccc1C=Nc1cc(Cl)ccc1-n1ccnc1`, for which the T/C runs as follows: under setting [1], 95 % of control; under setting [2], 95 % of control; (dose: 400.0 mg/kg/injection, schedule: Q04DX002 (ip), vehicle: Klucel (hydroxypropylcellulose) (HPC)) 87 % of control.

Turning to `CN(C)/N=N\c1nc[nH]c1C(=O)NC1CCCCC1`, the T/C runs as follows: (dose: 10.0 mg/kg/injection, schedule: Q01DX001 (ip), vehicle: saline with Tween-80) 100 % of control; (dose: 20.0 mg/kg/injection, schedule: Q01DX001 (ip), vehicle: saline with Tween-80) 94 % of control; (dose: 40.0 mg/kg/injection, schedule: Q01DX001 (ip), vehicle: saline with Tween-80) 96 % of control; (dose: 75.0 mg/kg/injection, schedule: Q01DX009 (ip), vehicle: saline with Tween-80) 98 % of control; (dose: 150.0 mg/kg/injection, schedule: Q01DX009 (ip), vehicle: saline with Tween-80) 109 % of control; (dose: 300.0 mg/kg/injection, schedule: Q01DX009 (ip), vehicle: saline with Tween-80) 101 % of control.

As to `CC(=O)OCC1CCC(NC(=O)N(CCCl)N=O)CC1` (centres undefined), the T/C is 104 % of control (dose: 3.0 mg/kg/injection, schedule: Q01DX001 (ip), vehicle: Klucel (hydroxypropylcellulose) (HPC)); 114 % of control (dose: 5.0 mg/kg/injection, schedule: Q01DX001 (ip), vehicle: Klucel (hydroxypropylcellulose) (HPC)); 167 % of control (dose: 8.0 mg/kg/injection, schedule: Q01DX001 (ip), vehicle: Klucel (hydroxypropylcellulose) (HPC)); 221 % of control (dose: 12.0 mg/kg/injection, schedule: Q01DX001 (ip), vehicle: Klucel (hydroxypropylcellulose) (HPC)); 270 % of control and 316 % of control (dose: 18.0 mg/kg/injection, schedule: Q01DX001 (ip), vehicle: Klucel (hydroxypropylcellulose) (HPC)); 316 % of control (dose: 26.0 mg/kg/injection, schedule: Q01DX001 (ip), vehicle: Klucel (hydroxypropylcellulose) (HPC)). For the same molecule, under “dose: 40.0 mg/kg/injection, schedule: Q01DX001 (ip), vehicle: Klucel (hydroxypropylcellulose) (HPC)”, the T/C was 208 % of control.

For the molecule `COC(=O)Nc1cccc(OC(=O)NC2CCCCC2)c1`, the T/C by setting is: (dose: 100.0 mg/kg/injection, schedule: Q04DX003 (ip), vehicle: saline with Tween-80) 100 % of control; (dose: 200.0 mg/kg/injection, schedule: Q04DX003 (ip), vehicle: saline with Tween-80) 100 % of control; (dose: 400.0 mg/kg/injection, schedule: Q04DX003 (ip), vehicle: saline with Tween-80) 93 % of control.

As for `O=C(c1ccccc1)c1ccc(Oc2ccccc2)cc1`, the T/C was 91 % of control (dose: 100.0 mg/kg/injection, schedule: Q04DX003 (ip), vehicle: gum acacia); 97 % of control (dose: 200.0 mg/kg/injection, schedule: Q04DX003 (ip), vehicle: gum acacia); 91 % of control (dose: 400.0 mg/kg/injection, schedule: Q04DX003 (ip), vehicle: gum acacia).

For `O=C(O)COc1ccc([N+](=O)[O-])cc1F`, the T/C (dose: 100.0 mg/kg/injection, schedule: Q04DX002 (ip), vehicle: other) was 102 % of control; the T/C (dose: 200.0 mg/kg/injection, schedule: Q04DX002 (ip), vehicle: other) is 88 % of control; the T/C (dose: 400.0 mg/kg/injection, schedule: Q04DX002 (ip), vehicle: other) is 91 % of control.

As for `CCCOC(=O)NCCSC(=O)OCCC`, the T/C by setting is: (dose: 100.0 mg/kg/injection, schedule: Q01DX001 (ip), vehicle: saline with Tween-80) 95 % of control; (dose: 200.0 mg/kg/injection, schedule: Q01DX001 (ip), vehicle: saline with Tween-80) 95 % of control; (dose: 400.0 mg/kg/injection, schedule: Q01DX001 (ip), vehicle: saline with Tween-80) 108 % of control.

In the case of `Cc1cc(CS)c(CS)cc1C`, the T/C reads like this: under setting [3], 100 % of control; under setting [4], 96 % of control; under setting [5], 103 % of control; under setting [6], 93 % of control; under setting [7], 102 % of control; under setting [8], 94 % of control.

For `O=C(O)c1c(Cl)n(-c2ccccc2)c2ccccc12`, the T/C (dose: 50.0 mg/kg/injection, schedule: Q04DX002 (ip), vehicle: Klucel (hydroxypropylcellulose) (HPC)) is 101 % of control; the T/C under setting [1] was 104 % of control; the T/C under setting [2] is 93 % of control.

For `Cc1ccc(NC(=O)COc2cc(Cl)c(Cl)cc2Cl)cc1C`, the T/C by setting is: under setting [9], 89 % of control; under setting [10], 97 % of control; under setting [11], 89 % of control; (dose: 400.0 mg/kg/injection, schedule: Q01DX009 (ip), vehicle: saline with Tween-80) 94 % of control.

In the case of `OCC(O)C(O)C(O)CC(c1ccc(Cl)cc1)c1ccc(Cl)cc1` (centres undefined), the T/C (dose: 50.0 mg/kg/injection, schedule: Q01DX001 (ip), vehicle: saline) was 102 % of control; the T/C under setting [12] was 102 % of control; the T/C under setting [13] is 106 % of control; the T/C under setting [14] was 107 % of control.

Regarding `O=C(N/N=C\c1ccc(Cl)cc1Cl)c1ccc(F)cc1`, the T/C under setting [9] is 96 % of control, the T/C under setting [10] is 94 % of control and the T/C under setting [11] is 92 % of control.

Turning to `CSCCC(NC(=O)CN)C(=O)O` (centres undefined), the T/C reads like this: under setting [12], 96 % of control; under setting [13], 104 % of control; under setting [14], 102 % of control.

With `COc1ccc(Nc2nc(N)nc(N)c2N)cc1`, the T/C (dose: 100.0 mg/kg/injection, schedule: Q01DX Z (ip), vehicle: saline) was 87 % of control.

As for `CCOC(=O)c1cnn(-c2ccccc2)c1C`, the T/C under setting [3] was 94 % of control; the T/C under setting [4] is 112 % of control; the T/C under setting [5] was 94 % of control; the T/C under setting [6] was 95 % of control; the T/C under setting [7] is 102 % of control; the T/C under setting [8] was 88 % of control.

With `O=S(=O)(c1cc(Cl)c(O)c(Cl)c1)c1cc(Cl)c(O)c(Cl)c1`, the T/C (dose: 25.0 mg/kg/injection, schedule: Q01DX009 (ip), vehicle: Klucel (hydroxypropylcellulose) (HPC)) was 92 % of control; the T/C (dose: 50.0 mg/kg/injection, schedule: Q01DX009 (ip), vehicle: Klucel (hydroxypropylcellulose) (HPC)) was 96 % of control; the T/C under setting [3] is 95 % of control and 109 % of control.

With `CCN(CC)c1ccccc1S(=O)(=O)O`, the T/C reads like this: under setting [12], 104 % of control; under setting [13], 95 % of control; under setting [14], 98 % of control.

Turning to `O=C1CC(c2ccccc2)NN1c1ccccc1` (centres undefined), the T/C is, setting by setting: under setting [10], 95 % of control and 97 % of control; under setting [11], 100 % of control and 103 % of control; (dose: 100.0 mg/kg/injection, schedule: Q04DX002 (ip), vehicle: alcohol) 102 % of control; (dose: 200.0 mg/kg/injection, schedule: Q04DX002 (ip), vehicle: alcohol) 104 % of control; (dose: 400.0 mg/kg/injection, schedule: Q04DX002 (ip), vehicle: alcohol) 94 % of control.
